Columns and labels:
[1] = system: HepG2 liver cancer cell line; experiment: MTT cell viability assay, HepG2; type: cell-based, human; settings: 72 hours exposure
Description: (§1) All substances towards the A549, HepG2, MCF-7, and NHDF cell lines were evaluated by using the MTT approach. The collected data were utilized to compute the IC50 value and contrast it with the gold standard cisplatin anticancer medication.
(§2) Cellular viability or metabolic properties can be measured using the MTT assay, which is a powerful and credible method for anticancer properties. The anticancer efficacy of all test compounds was investigated by the MTT assay against A549, HepG2, MCF-7, and NHDF cell lines. As per the colorimetric approach, the IC50 findings of all test substances were evaluated as the % of cell viability/growth inhibition. […] Nevertheless, complex (1a) has the highest cytotoxic potential among others. The acquired findings were in the subsequent sequence as follows: (cisplatin) > (1a) > (2a) > (HL) (Figure 16 and Table 10). The cytotoxic effectiveness is dependent upon the DNA-binding modalities, the structure-activity relationship, as well as drug concentrations and incubation period exposure. […] As per Tweedy's chelation theory, charge equilibration happens as a result of coordination between the ligands and metal ions, which minimises the polarity of the metal ions and causes the capability of the test complexes to pass via the cell membrane lipid layer. Thus, it put off the synthesis of cell wall/protein/nucleic acids. Additionally, the results of DNA-binding tests using these complexes, including gel electrophoresis, UV-visible spectral titration, hydrodynamic, emission, and CV findings, were in good agreement with the findings of cytotoxicity. The expressions (46) and (47) were supported to measure the % of growth inhibition and cell viability. […]
(§3) A549, HepG2 MCF-7, and NHDF are represented as human lung cancer cell line, liver cancer cell line, breast cancer cell line, and normal human dermal fibroblasts cell line.(45) % Cytotoxiciy=1− Mean absorbance of Sample at 595 nm/Mean absorbance of Controlat 595 nm ×100, (46) Cellviability%=100−Cytotoxiciy%.

[2] = system: A549 human lung cancer cell line; experiment: MTT cell viability assay, A549; type: cell-based; settings: 72 hours exposure
Description: as §1, §2, §3

[3] = system: MCF-7 breast cancer cell line; experiment: MTT cell viability assay, MCF-7; type: cell-based, human; settings: 72 hours exposure
Description: as §1, §2, §3

[4] = system: NHDF normal human dermal fibroblasts cell line; experiment: MTT cell viability assay, NHDF; type: cell-based; settings: 72 hours exposure, normal cells
Description: as §1, §2, §3

Escherichia coli = experiment: Agar disc diffusion, strain A; type: cell-based; set-up: (inhibition %): concentration or dose not given beside the values
Description: (§4) In-vitro antimicrobial properties were evaluated for all samples by the agar disc diffusion method towards different fungal and bacterial strains. Additionally, the reported inhibition zone values were comparatively analyzed with the standard antifungal drugs ketoconazole and amphotericin B as well as the standard antibiotic medications streptomycin and amikacin.
(§5) The current research has a curious focus on the in vitro antimicrobial properties of biological systems because these studies are crucial for developing effective antibacterial and antifungal medications. […] It can also be spelled out based on the chelation theory proposed by Overtone and Tweedy. Chelation theory points out that the partial exchanging of the positive charge of the metal center with donor moieties, and overlap of the ligand orbitals will reduce the greater degree of the metal ion's polarity, which ultimately rises the delocalization of π and d electrons over the full chelated ring system. By raising the size of the metal ion due to the retarding of polarization, chelation may also enhance the complexes' lipophilic characteristics, which further stimulate the lipid membrane permeability and break down the bacteria' enzymes responsible for cell wall formation, therefore slowing down the regular cell processes. By preventing the production of cell walls/proteins/DNA, including by obstructing folate metabolism and the cytoplasmic membrane, antimicrobial drugs frequently either fully eliminate microbes or only prevent their cell growth. Additionally, the samples' mode of action may be employed in disrupting the cell's respiration process by forming an H-bond during the morpholine-fused iminic group coordinated with the active metal center of its components, inhibiting proliferation of the cell. […] The difference in the antimicrobial efficacy of some of the compounds towards various microorganisms influences on the impermeability of the cells of the germs or the diversity of ribosomes of the microbes. The % of the inhibition of all substances is estimated from (45) (Table 9).
(§6) (A, B, C, D, and E are represented as gram negative bacteria species Escherichia coli, Salmonella enteric serovar typhi, Salmonella enteric serovar typhi, Pseudomonas aeruginosa, and Shigella flexneri, respectively. F & G are denoted as gram positive bacteria species Staphylococcus aureus and Bacillus cereus. H, I, and J are represented as fungal strains Aspergillus niger, Candida albicans, and Mucor indicus. Standard drugs for bacterial strains: Amikacin & Streptomycin Standard drugs for fungal strains: Ketoconazole and Amphotericin B. [Control (DMSO) = 6 mm].(44) Inhibition %=T–C/T×100, where T and C are represented as the diameter of microbial growth of the sample plates and the control plate (6 mm), respectively. Error limits ±2.5–5.0% (P ≤ 0.05).

Shigella flexneri = experiment: Agar disc diffusion, strain E; type: cell-based; set-up: (inhibition %): concentration or dose not given beside the values
Description: as §4, §5, §6

[5] = system: Salmonella enteric serovar typhi; experiment: Agar disc diffusion, strain B; type: cell-based
Description: as §4, §5, §6

Pseudomonas aeruginosa = experiment: Agar disc diffusion, strain D; type: cell-based; set-up: (inhibition %): concentration or dose not given beside the values
Description: as §4, §5, §6

Staphylococcus aureus = experiment: Agar disc diffusion, strain F; type: cell-based; set-up: (inhibition %): concentration or dose not given beside the values
Description: as §4, §5, §6

Bacillus cereus = experiment: Agar disc diffusion, strain G; type: cell-based; set-up: (inhibition %): concentration or dose not given beside the values
Description: as §4, §5, §6

[6] = system: Salmonella enteric serovar typhi; experiment: Agar disc diffusion, strain C; type: cell-based
Description: as §4, §5, §6

Row | SMILES | IC50 [1] [µM] | IC50 [2] [µM] | IC50 [3] [µM] | IC50 [4] [µM] | (inhibition %) (Escherichia coli; (T–C)/T×100) [%] | diameter of the clear zone inhibition (Escherichia coli; control (DMSO) = 6 mm) [mm] | (inhibition %) (Shigella flexneri) [%] | diameter of the clear zone inhibition (Shigella flexneri; control = 6 mm) [mm] | (inhibition %) [5] [%] | diameter of the clear zone inhibition ([5]; control = 6 mm) [mm] | (inhibition %) (Pseudomonas aeruginosa) [%] | diameter of the clear zone inhibition (Pseudomonas aeruginosa; control = 6 mm) [mm] | (inhibition %) (Staphylococcus aureus) [%] | diameter of the clear zone inhibition (Staphylococcus aureus; control = 6 mm) [mm] | (inhibition %) (Bacillus cereus) [%] | diameter of the clear zone inhibition (Bacillus cereus; control = 6 mm) [mm] | (inhibition %) [6] [%] | diameter of the clear zone inhibition ([6]; control = 6 mm) [mm]
1 | N.N.[Cl][Pt][Cl] [Cisplatin, reference compound] | 22.9 ± 1.1 | 31.9 ± 1.6 | 20.2 ± 1 | 26.9 ± 1.3 |  |  |  |  |  |  |  |  |  |  |  |  |  | 
2 | [H]/N=C(/N)N[C@H]1[C@H](O)[C@@H](O)[C@H](O[C@@H]2O[C@@H](C)[C@](O)(C=O)[C@H]2O[C@@H]2O[C@@H](CO)[C@H](O)[C@@H](O)[C@@H]2NC)[C@@H](N/C(N)=N\[H])[C@@H]1O [Streptomycin, reference compound] |  |  |  |  | 75 | 24 | 76 | 25 | 77 | 26 | 71 | 21 | 71 | 21 | 71 | 21 | 75 | 24

Reference: PMC9763021, “Comprehensive Assessment of Biomolecular Interactions of Morpholine-Based Mixed Ligand Cu(II) and Zn(II) Complexes of 2,2′-Bipyridine as Potential Anticancer and SARS-CoV-2 Agents: A Synergistic Experimental and Structure-Based Virtual Screening” (Bioinorganic Chemistry and Applications, 2022)
